Data from patent US20230109010A1, “PESTICIDE COMPOSITIONS WITH SUPRAMOLECULAR STRUCTURES FOR AGRICULTURAL USE” (BPS JUST ENERGY TECHNOLOGY, LLC, priority 2020, published 2023).

Assays:
palmer amaranth [1] = experiment: Field trial in corn at V3, broadcast treatment on 2-4 inch weeds, % weed control; assay type: in vivo, Amaranthus palmeri
Excerpt: (§1) The herbicides tested were glufosinate, glyphosate, and mesotrione. Each herbicide was combined at the specified rate with either deionized water or SymMAX™ supramolecular host water mixture commercially available from Shotwell Hydrogenics at 15 gallons per acre (GPA). Specified rates for glufosinate were 22 ounces per acre, 11 ounces per acre, and 5.5 ounces per acre. Specified rates for glyphosate were 22 ounces per acre, 11 ounces per acre, and 5.5 ounces per acre. Specified rates for mesotrione were 3 ounces per acre, 2 ounces per acre, and 1 ounce per acre.
(§2) This example was conducted as a 4 replicate, RCBD (randomized control block design) in Quitman, GA. An untreated control was used as a standard that provided no weed control and no phytotoxicity. All treatments were compared to the untreated control. Counted dead weeds and living weeds were used to determine % weed control. The untreated control was also used to determine % crop phytotoxicity for the crop. Typical indications of phytotoxicity include chlorosis, stunting, epinasty, and/or leaf burn.
(§3) The trial ran for 14 days with weekly data assessments taken on % crop phytotoxicity and % weed control of four key species: palmer amaranth (Amaranthus palmeri), ivyleaf morning glory (Ipomoea hederacea), fall panicum (Panicum dichotomiflorum) and large crabgrass (Digitaria sanguinalis The test field was over seeded with weed seed obtained from the University of Georgia prior to corn planting. Treatments were applied as a broadcast treatment when corn had reached physiological growth stage V3 and weeds were in the 2-4″ size range. Treatments were applied at various rates ranging from about 1 ounce per acre to about 22 ounces per acre. Tables 9-10 show the % weed control when the weeds are treated with glufosinate. Tables 11-12 show the % weed control when the weeds are treated with glyphosphate. Tables 13-14 show the % weed control when the weeds are treated with mesotrione.

large crabgrass [2] = experiment: as above; assay type: in vivo, Digitaria sanguinalis
Excerpt: as §1, §2, §3

fall panicum [3] = experiment: as above; assay type: in vivo, Panicum dichotomiflorum
Excerpt: as §1, §2, §3

ivyleaf morning glory = experiment: as above; assay type: in vivo, Ipomoea hederacea
Excerpt: as §1, §2, §3

large crabgrass [4] = experiment: Field trial in corn, herbicide applied 3 days after planting, % weed control; assay type: in vivo, Digitaria sanguinalis
Description: (§4) The herbicides tested were acetochlor and s-metolachlor. Each herbicide was combined at the specified rate with either deionized water or SymMAX™ supramolecular host chemistry that is commercially available from Shotwell Hydrogenics at 15 gallons per acre (GPA). Specified rates for acetochlor were 0.5 parts per acre, 1 part per acre, and 2 parts per acre. […]
as §2
(§5) The trial ran for 28 days with weekly data assessments taken on % crop phytotoxicity and % weed control of three key species: palmer amaranth (Amaranthus palmeri), fall panicum (Panicum dichotomiflorum) and large crabgrass (Digitaria sanguinalis). The test field was over seeded with weed seed obtained from the University of Georgia prior to corn planting. Treatments were applied 3 days after planting as a broadcast application at various rates ranging from about 0.5 parts per acre to about 2 parts per acre. Tables 1-4 show the % weed control when the weeds are treated with acetachlor. Tables 4-8 show the % weed control when the weeds are treated with s-metolachlor.

fall panicum [5] = experiment: as above; assay type: in vivo, Panicum dichotomiflorum
Description: as §4, §2, §5

palmer amaranth [6] = experiment: as above; assay type: in vivo, Amaranthus palmeri
Description: as §4, §2, §5

[7] = 7 days, mesotrione 1 ounce/acre
[8] = 7 days, mesotrione 2 ounces/acre
[9] = 7 days, mesotrione 3 ounces/acre
[10] = 14 days, mesotrione 1 ounce/acre
[11] = 14 days, mesotrione 2 ounces/acre
[12] = 14 days, mesotrione 3 ounces/acre
[13] = 7 days, s-metolachlor 0.75 part/acre
[14] = 7 days, s-metolachlor 1 part/acre
[15] = 7 days, s-metolachlor 1.5 parts/acre
[16] = 14 days, s-metolachlor 0.75 part/acre
[17] = 14 days, s-metolachlor 1 part/acre
[18] = 14 days, s-metolachlor 1.5 parts/acre
[19] = 21 days, s-metolachlor 0.75 part/acre
[20] = 21 days, s-metolachlor 1 part/acre
[21] = 21 days, s-metolachlor 1.5 parts/acre
[22] = 28 days, s-metolachlor 0.75 part/acre
[23] = 28 days, s-metolachlor 1 part/acre
[24] = 28 days, s-metolachlor 1.5 parts/acre

CS(=O)(=O)c1ccc(C(=O)C2C(=O)CCCC2=O)c([N+](=O)[O-])c1 [Mesotrione, mesotrione]
% WEED CONTROL FOR PALMER AMARANTH (palmer amaranth [1]; [7]): 87.4%
% WEED CONTROL FOR PALMER AMARANTH (palmer amaranth [1]; [8]): 97.7%
% WEED CONTROL FOR PALMER AMARANTH (palmer amaranth [1]; [9]): 99.0%
% WEED CONTROL FOR PALMER AMARANTH (palmer amaranth [1]; [10]): 95.1%
% WEED CONTROL FOR PALMER AMARANTH (palmer amaranth [1]; [11]): 97.0%
% WEED CONTROL FOR PALMER AMARANTH (palmer amaranth [1]; [12]): 99.3%
% WEED CONTROL FOR LARGE CRABGRASS (large crabgrass [2]; [7]): 62.3%
% WEED CONTROL FOR LARGE CRABGRASS (large crabgrass [2]; [8]): 81.5%
% WEED CONTROL FOR LARGE CRABGRASS (large crabgrass [2]; [9]): 91.5%
% WEED CONTROL FOR LARGE CRABGRASS (large crabgrass [2]; [10]): 63.0%
% WEED CONTROL FOR LARGE CRABGRASS (large crabgrass [2]; [11]): 78.8%
% WEED CONTROL FOR LARGE CRABGRASS (large crabgrass [2]; [12]): 88.5%
% WEED CONTROL FOR FALL PANICUM (fall panicum [3]; [7]): 62.8%
% WEED CONTROL FOR FALL PANICUM (fall panicum [3]; [8]): 72.3%
% WEED CONTROL FOR FALL PANICUM (fall panicum [3]; [9]): 87.3%
% WEED CONTROL FOR FALL PANICUM (fall panicum [3]; [10]): 54.8%
% WEED CONTROL FOR FALL PANICUM (fall panicum [3]; [11]): 62.3%
% WEED CONTROL FOR FALL PANICUM (fall panicum [3]; [12]): 86.0%
% WEED CONTROL FOR IVYLEAF MORNINGLORY (ivyleaf morning glory; [7]): 64.5%
% WEED CONTROL FOR IVYLEAF MORNINGLORY (ivyleaf morning glory; [8]): 91.6%
% WEED CONTROL FOR IVYLEAF MORNINGLORY (ivyleaf morning glory; [9]): 94.2%
% WEED CONTROL FOR IVYLEAF MORNINGLORY (ivyleaf morning glory; [10]): 88.8%
% WEED CONTROL FOR IVYLEAF MORNINGLORY (ivyleaf morning glory; [11]): 96.5%
% WEED CONTROL FOR IVYLEAF MORNINGLORY (ivyleaf morning glory; [12]): 99.1%

CCc1cccc(C)c1N(C(=O)CCl)[C@@H](C)COC [S-metolachlor, s-metolachlor]
% WEED CONTROL FOR LARGE CRABGRASS (large crabgrass [4]; [13]): 92.0%
% WEED CONTROL FOR LARGE CRABGRASS (large crabgrass [4]; [14]): 99.0%
% WEED CONTROL FOR LARGE CRABGRASS (large crabgrass [4]; [15]): 100.0%
% WEED CONTROL FOR LARGE CRABGRASS (large crabgrass [4]; [16]): 82.8%
% WEED CONTROL FOR LARGE CRABGRASS (large crabgrass [4]; [17]): 89.0%
% WEED CONTROL FOR LARGE CRABGRASS (large crabgrass [4]; [18]): 98.0%
% WEED CONTROL FOR LARGE CRABGRASS (large crabgrass [4]; [19]): 91.3%
% WEED CONTROL FOR LARGE CRABGRASS (large crabgrass [4]; [20]): 84.3%
% WEED CONTROL FOR LARGE CRABGRASS (large crabgrass [4]; [21]): 93.0%
% WEED CONTROL FOR LARGE CRABGRASS (large crabgrass [4]; [22]): 90.0%
% WEED CONTROL FOR LARGE CRABGRASS (large crabgrass [4]; [23]): 99.7%
% WEED CONTROL FOR LARGE CRABGRASS (large crabgrass [4]; [24]): 100.0%
% WEED CONTROL FOR FALL PANICUM (fall panicum [5]; [13]): 91.3%
% WEED CONTROL FOR FALL PANICUM (fall panicum [5]; [14]): 97.5%
% WEED CONTROL FOR FALL PANICUM (fall panicum [5]; [15]): 100.0%
% WEED CONTROL FOR FALL PANICUM (fall panicum [5]; [16]): 83.5%
% WEED CONTROL FOR FALL PANICUM (fall panicum [5]; [17]): 91.8%
% WEED CONTROL FOR FALL PANICUM (fall panicum [5]; [18]): 97.8%
% WEED CONTROL FOR FALL PANICUM (fall panicum [5]; [19]): 90.1%
% WEED CONTROL FOR FALL PANICUM (fall panicum [5]; [20]): 89.4%
% WEED CONTROL FOR FALL PANICUM (fall panicum [5]; [21]): 98.9%
% WEED CONTROL FOR FALL PANICUM (fall panicum [5]; [22]): 88.3%
% WEED CONTROL FOR FALL PANICUM (fall panicum [5]; [23]): 97.3%
% WEED CONTROL FOR FALL PANICUM (fall panicum [5]; [24]): 100.0%
% WEED CONTROL FOR PALMER AMARANTH (palmer amaranth [6]; [13]): 96.0%
% WEED CONTROL FOR PALMER AMARANTH (palmer amaranth [6]; [14]): 99.3%
% WEED CONTROL FOR PALMER AMARANTH (palmer amaranth [6]; [15]): 100.0%
% WEED CONTROL FOR PALMER AMARANTH (palmer amaranth [6]; [16]): 94.3%
% WEED CONTROL FOR PALMER AMARANTH (palmer amaranth [6]; [17]): 98.0%
% WEED CONTROL FOR PALMER AMARANTH (palmer amaranth [6]; [18]): 100.0%
% WEED CONTROL FOR PALMER AMARANTH (palmer amaranth [6]; [19]): 96.0%
% WEED CONTROL FOR PALMER AMARANTH (palmer amaranth [6]; [20]): 99.0%
% WEED CONTROL FOR PALMER AMARANTH (palmer amaranth [6]; [21]): 100.0%
% WEED CONTROL FOR PALMER AMARANTH (palmer amaranth [6]; [22]): 98.8%
% WEED CONTROL FOR PALMER AMARANTH (palmer amaranth [6]; [23]): 100.0%
% WEED CONTROL FOR PALMER AMARANTH (palmer amaranth [6]; [24]): 100.0%
